In patent publication US20020165233A1, “Quinoxaline containing medicaments for post exposure prophylaxis of an HIV infection” (priority 1999, published 2002):

Test system: RT-SHIV
Assay: Quantitative virus isolation (QVI) from PBMC co-cultured with C8166 and viral RNA PCR of culture supernatant
Assay type: in vivo, rhesus monkeys
Set-up: key to viral RNA PCR of QVI culture supernatant: +=positive; −=negative
Protocol: Nine rhesus monkeys (male, 2 years old, 2-3 kg) were seronegative for SIV, Simian T cell Leukemia Virus (STLV), B virus and Type D retroviruses. 15 mg/kg body weight of COMPOUND A was subcutaneously administered into animals twice a day (12 h interval) for 28 d. Animals were divided into three groups. All animals were intravenously administered with 100 TCID50 of RT-SHIV The first group consisted of three animals treated with COMPOUND A from 8 h post exposure for 28 d. The second group of animals was treated with COMPOUND A from 24 h post exposure for 28 d. The third group (control) received the solvent that was used to dissolve COMPOUND A (PEG400:glycerol:water=[…]) from 8 h post exposure for 28 d.
Blood was collected from all the animals either just before or 2 h after the drug administration on 0, 3, 7, 10, 14, 21, 29 d post exposure in order to check the drug concentration, otherwise in intervals of 2 to 8 weeks. Biopsy of inguinal lymph nodes was conducted on 17 d or 18 d and 8 weeks post exposure in two animals per group. Cerebrospinal fluid (CSF) was collected from the animals just before biopsy.
Viral RNA was detected from 7 or 10 d post exposure up to 40 weeks post exposure in all plasma specimen from two animals (FIG. 2). […] While in two animals plasma viral RNA levels persisted around 10^5 copy/ml after a moderate reduction occurred at 4 weeks post exposure, viral RNA levels in one animal declined to about 10^3 copy/ml after 15 weeks post exposure (FIG. 2). The RT-SHIV infection in PIBMC was monitored by quantitative virus isolation (QVI) and quantitative PCR assay of proviral DNA. Serially diluted PBMC were co-cultured with C8166 to determine the minimal PBMC cell number to provoke a productive infection of C8166 cells. The number from the QVI test indicates infectious cells per one million PBMC. QVI results were consistent with plasma viral RNA levels. The numbers indicates the results of QVI. A + or − on the right indicates results of viral RNA PCR assay for the detection of virus in culture supernatant. +=positive, −=negative.

[1] = animal #1, 15 mg/kg s.c. b.i.d. 8h thru 28 d post exp, week 6 post exp.
[2] = animal #1, 15 mg/kg s.c. b.i.d. 8h thru 28 d post exp, week 8 post exp.
[3] = animal #1, 15 mg/kg s.c. b.i.d. 8h thru 28 d post exp, week 11 post exp.
[4] = animal #3, 15 mg/kg s.c. b.i.d. 24h thru 28 d post exp., week 6 post exp.
[5] = animal #3, 15 mg/kg s.c. b.i.d. 24h thru 28 d post exp., week 8 post exp.
[6] = animal #3, 15 mg/kg s.c. b.i.d. 24h thru 28 d post exp., week 11 post exp.
[7] = animal #4, 15 mg/kg s.c. b.i.d. 24h thru 28 d post exp., week 8 post exp.
[8] = animal #10, 15 mg/kg s.c. b.i.d. 8h thru 28 d post exp, week 6 post exp.
[9] = animal #10, 15 mg/kg s.c. b.i.d. 8h thru 28 d post exp, week 8 post exp.
[10] = animal #10, 15 mg/kg s.c. b.i.d. 8h thru 28 d post exp, week 11 post exp.

## CC[C@H]1C(=O)Nc2ccc(F)cc2N1C(=O)OC(C)C [Compound A, (3S)-ethyl-6-fluoro-4-isopropyloxycarbonyl-3,4-dihydroquinoxalin-2(1H)-one]
Animal #1, 15 mg/kg s.c. b.i.d. 8h thru 28 d post exp, week 2 post exp.
  viral RNA PCR of QVI culture supernatant: −/−
[1]
  Quantitative virus isolation (QVI): 4 infectious cells per one million PBMC
  viral RNA PCR of QVI culture supernatant: +
[2]
  Quantitative virus isolation (QVI): 16 infectious cells per one million PBMC
  viral RNA PCR of QVI culture supernatant: +
[3]
  Quantitative virus isolation (QVI): 4 infectious cells per one million PBMC
  viral RNA PCR of QVI culture supernatant: +
Animal #1, 15 mg/kg s.c. b.i.d. 8h thru 28 d post exp, week 15 post exp.
  viral RNA PCR of QVI culture supernatant: −/−
Animal #3, 15 mg/kg s.c. b.i.d. 24h thru 28 d post exp., week 2 post exp.
  viral RNA PCR of QVI culture supernatant: −/−
[4]
  Quantitative virus isolation (QVI): 16 infectious cells per one million PBMC
  viral RNA PCR of QVI culture supernatant: +
[5]
  Quantitative virus isolation (QVI): 16 infectious cells per one million PBMC
  viral RNA PCR of QVI culture supernatant: +
[6]
  Quantitative virus isolation (QVI): 16 infectious cells per one million PBMC
  viral RNA PCR of QVI culture supernatant: +
Animal #3, 15 mg/kg s.c. b.i.d. 24h thru 28 d post exp., week 15 post exp.
  viral RNA PCR of QVI culture supernatant: −/−
Animal #4, 15 mg/kg s.c. b.i.d. 24h thru 28 d post exp., week 2 post exp.
  viral RNA PCR of QVI culture supernatant: −/−
Animal #4, 15 mg/kg s.c. b.i.d. 24h thru 28 d post exp., week 6 post exp.
  viral RNA PCR of QVI culture supernatant: −/−
[7]
  Quantitative virus isolation (QVI): 1 infectious cells per one million PBMC
  viral RNA PCR of QVI culture supernatant: +
Animal #4, 15 mg/kg s.c. b.i.d. 24h thru 28 d post exp., week 11 post exp.
  viral RNA PCR of QVI culture supernatant: −/−
Animal #4, 15 mg/kg s.c. b.i.d. 24h thru 28 d post exp., week 15 post exp.
  viral RNA PCR of QVI culture supernatant: −/−
Animal #5, 15 mg/kg s.c. b.i.d. 8h thru 28 d post exp, week 2 post exp.
  viral RNA PCR of QVI culture supernatant: −/−
Animal #5, 15 mg/kg s.c. b.i.d. 8h thru 28 d post exp, week 6 post exp.
  viral RNA PCR of QVI culture supernatant: −/−
Animal #5, 15 mg/kg s.c. b.i.d. 8h thru 28 d post exp, week 8 post exp.
  viral RNA PCR of QVI culture supernatant: −/−
Animal #5, 15 mg/kg s.c. b.i.d. 8h thru 28 d post exp, week 11 post exp.
  viral RNA PCR of QVI culture supernatant: −/−
Animal #5, 15 mg/kg s.c. b.i.d. 8h thru 28 d post exp, week 15 post exp.
  viral RNA PCR of QVI culture supernatant: −/−
Animal #10, 15 mg/kg s.c. b.i.d. 8h thru 28 d post exp, week 2 post exp.
  viral RNA PCR of QVI culture supernatant: −/−
[8]
  Quantitative virus isolation (QVI): 1 infectious cells per one million PBMC
  viral RNA PCR of QVI culture supernatant: +
[9]
  Quantitative virus isolation (QVI): 16 infectious cells per one million PBMC
  viral RNA PCR of QVI culture supernatant: +
[10]
  Quantitative virus isolation (QVI): 4 infectious cells per one million PBMC
  viral RNA PCR of QVI culture supernatant: +
Animal #10, 15 mg/kg s.c. b.i.d. 8h thru 28 d post exp, week 15 post exp.
  viral RNA PCR of QVI culture supernatant: −/−
Animal #11, 15 mg/kg s.c. b.i.d. 24h thru 28 d post exp., week 2 post exp.
  viral RNA PCR of QVI culture supernatant: −/−
Animal #11, 15 mg/kg s.c. b.i.d. 24h thru 28 d post exp., week 6 post exp.
  viral RNA PCR of QVI culture supernatant: −/−
Animal #11, 15 mg/kg s.c. b.i.d. 24h thru 28 d post exp., week 8 post exp.
  Quantitative virus isolation (QVI): 4 infectious cells per one million PBMC
